Literature values as cited in US20250275935A1, “COMPOSITIONS AND METHODS FOR TREATING PATIENTS WITH DEMENTIA DUE TO ALZHEIMER'S DISEASE WITH A COMBINATION OF THC AND MELATONIN” (IGC Pharma IP, LLC, priority 2021, published 2025).

Experiments:
[1] = general statement, no test described
mice = conditions: THC 3 mg/kg bodyweight per day, four weeks
[2] = 4.5 mg/day THC
[3] = system: patient having severe Alzheimer's disease; conditions: 4.9-6.7 mg dronabinol with 10 mg donepezil and 50 mg sertraline daily; decreased from 20

In the case of `COc1ccc2[nH]cc(CCNC(C)=O)c2c1` [Melatonin, N-acetyl-5-methoxytryptamine], the solubility in water [1] is given as “typically insoluble in water”.
For `CCCCCc1cc(O)c2c(c1)OC(C)(C)[C@@H]1CCC(C)=C[C@@H]21` [THC, Tetrahydrocannabinol], the “cognitive performance (learning and memory)” value (mice; mature (12 months) and old (18 months) mice) is given as “cognitive deficits in learning and memory were erased”, the cognitive performance (mice; young mice (2 month)) is given as “performed worse than the control group of young mice” and the “agitation or reduction from baseline of NPI total score versus placebo” value [2] is given as “No differences were shown”.
In the case of `COc1cc(/C=C/C(=O)CC(=O)/C=C/c2ccc(O)c(OC)c2)ccc1O` [curcumin], the solubility in water [1] is given as “only poorly soluble in water”.
For `CCCCCc1cc(O)c2c(c1)OC(C)(C)[C@@H]1CCC(C)=C[C@@H]21` [dronabinol], the NPI total score [3] is given as 15.
In the case of `C[C@@H]1O[C@@H](OC[C@H]2O[C@@H](Oc3c(-c4ccc(O)c(O)c4)oc4cc(O)cc(O)c4c3=O)[C@H](O)[C@@H](O)[C@@H]2O)[C@H](O)[C@H](O)[C@H]1O` [rutin], the solubility in water [1] is given as “only poorly soluble in water”.
